# Entries after “also recorded” stand apart in the source; their conditions may differ.
# Experiments:
# Type in all cases: biochemical
# [1] = molecular target: T1, NFAT1/DNA complex (Homo sapiens, UniProt Q13469); assay: In vitro photo-crosslinking of assembled NFAT1/DNA complex, denaturing SDS gel; conditions: for formation of covalent NFAT1/DNA crosslinked complex stable under denaturing SDS-PAGE: probe + UV 365 nm, 2% SDS, boil 10 min
# T1 construct: human NFAT1 protein (residue 399-676, NFAT1-DBD)
# T1 sequence (Q13469 399-676): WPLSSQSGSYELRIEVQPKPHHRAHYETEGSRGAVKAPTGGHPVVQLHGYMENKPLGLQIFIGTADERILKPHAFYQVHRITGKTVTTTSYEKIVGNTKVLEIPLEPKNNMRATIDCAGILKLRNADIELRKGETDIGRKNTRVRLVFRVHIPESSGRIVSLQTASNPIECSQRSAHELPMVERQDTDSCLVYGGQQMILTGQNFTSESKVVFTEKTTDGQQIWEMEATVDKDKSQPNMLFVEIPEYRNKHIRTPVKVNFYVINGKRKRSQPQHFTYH
# Procedure: The probe binding and UV crosslinking were carried out as described in FIG. 5G and FIG. 7. The crosslinked complexes (lane 3 and lane 6) were further treated with DTT (100 mM, heat 50 degree C. for 30 min). The reaction mixtures were run on SDS gel and visualized by FAM fluorescence for DNA (top) and by Coomassie blue stain for protein (bottom) as described in FIG. 7. FIG. 7 depicts denaturing SDS gel analysis of covalent capture of in vitro assembled MEF2/DNA and NFAT1/DNA complexes by the BFPX probe, SPB-AAD. […] The protein/DNA complexes are incubated at room temperature for 30 min, and treated with various combination of BFPX probe (SPB-AAD) and UV illumination as described in FIG. 5G. […] The reaction mixtures were added SDS loading dye (2% SDS), boil for 10 min, and run on SDS gel (Bio-Rad Any Kd gradient gel). The same gel was visualized by FAM fluorescence for DNA (top) and by Coomassie blue stain for protein (bottom). FIG. 8C depicts denaturing SDS gel analysis of covalent capture of in vitro assembled MEF2/DNA and NFAT1/DNA complexes by the BFPX probe, SPB-PEG3-AAD. […] The reaction mixtures were run on SDS gel and visualized by FAM fluorescence for DNA (top) and by Coomassie blue stain for protein (bottom) as described in FIG. 7. […] Typically protein and DNA are mixed to bind at room temperature for 30 min, followed by addition of BFPX probes for an additional 15 min and then UV illumination. In the case of FA treatment, the reaction time is 10 min at room temperature and then quenched by 250 mM glycine. […] The UV illumination (as indicated by a positive sign) was carried out using a LED Chip (21.4 mm×21.4 mm, 365-370 nm, 30 Watt, sample distance 2 cm, exposure time 2-15 min at 4 degree C., here the exposure time is 15 min). […] The small amount of single stranded DNA is due to incomplete annealing. The higher smearing bands are most likely non-specific protein complexes. Neither of these experimental imperfections affected the main conclusion of this experiment because the double stranded-DNA bands and the specific NFAT-DNA complex bands (the middle sharp bands) are well defined and can be monitored without the interference of the other bands. […] The gel was visualized by Cy5 fluorescence for DNA. FIG. 12E depicts further characterization of BFPX crosslinking of NFAT1/DNA complexes using different DNA substrates and staining techniques. Two unlabeled DNA substrates containing a core NFAT-binding site and different flanking bases and sequence lengths ([…] ID NO: 4), 21 mer, c2: [NT] ID NO: 5), 16 mer) were used to bind the NFAT1-DBD as described in FIG. 12C. […] The reactions were then analyzed by SDS PAGE under denaturing condition as described in FIG. 12D. Because the DNA is unlabeled, the gel was stained using either cyanine-based dye (SYBR Safe) or Coomassie Blue stain (CB). […] The different size of the NFAT-c1DNA complexes (lane 2) and NFAT-c2DNA complexes (lane 4) was resolved by loading reactions of lane 2 (2a, 2b and 2c) and lane 4 (4a, 4b and 4c) as triplicates side-by-side on the same gel (lower panel) using either SYBR and CB stain. FIG. 12F depicts time course of BFPX crosslinking of NFAT1/DNA complexes. […] The reactions at different time points were then analyzed on SDS gel as described in FIG. 12D. […] When the UV exposure time is longer than 5 min, a significant amount of crosslinked NFAT-DNA complex can be formed with UV illumination without SPB-AAD.
# [2] = molecular target: T2, Nkx2.5/DNA complex (Homo sapiens, UniProt P52952); assay: BFPX crosslinking of Nkx2.5/DNA complexes, SDS PAGE; conditions: denaturing SDS PAGE; probes with UV
# T2 construct: human Nkx2.5 DBD (the homeodomain); made in house
# Procedure: FIG. 12H depicts BFPX crosslinking of Nkx2.5/DNA complexes. […] The various treatment combinations were list above the gel. The reactions were then analyzed by SDS PAGE under denaturing condition as described in FIG. 12D.
# [3] = molecular target: T3, p53/DNA complex (Homo sapiens, UniProt P04637); assay: BFPX crosslinking of p53/DNA complexes, SDS PAGE; conditions: denaturing SDS PAGE; probes with UV; vs no-protein controls
# T3 construct: the human tumor suppressor p53 DBD; made in house
# Procedure: FIG. 12I depicts BFPX crosslinking of p53/DNA complexes. The binding reactions between the human tumor suppressor p53 DBD and a 37 mer Cy5 labeled DNA containing a consensus p53 tetramer binding site (5′-/5Cy5/-[…]-3′, (SEQ ID NO: 8)) were set up and treated with BFPX probes and UV illumination as described in FIG. 12C. The various treatment combinations were list above the gel. The reactions were then analyzed by SDS PAGE under denaturing condition as described in FIG. 12D. […] Because p53 bind this this DNA substrate as a tetramer, crosslinked p53/DNA complexes may contain one or more p53 protein molecules. While the monomeric p53/DNA complex appears to be the dominant crosslinked protein-DNA complexes, higher-molecule weight species were visible in SDS gel, which may correspond to crosslinked higher-order p53/DNA complex.
# T3 sequence (P04637 102-292 limits assumed, one chain of several): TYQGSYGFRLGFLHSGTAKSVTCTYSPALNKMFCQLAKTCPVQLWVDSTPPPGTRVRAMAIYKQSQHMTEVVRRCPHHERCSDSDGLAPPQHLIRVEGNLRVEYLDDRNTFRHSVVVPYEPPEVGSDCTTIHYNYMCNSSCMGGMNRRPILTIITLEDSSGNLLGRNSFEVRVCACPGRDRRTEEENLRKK
# T2 sequence (P52952 138-197 limits assumed, one chain of several): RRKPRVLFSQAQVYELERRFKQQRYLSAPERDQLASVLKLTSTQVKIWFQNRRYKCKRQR
"low probe concentration at which a significant amount of crosslinked protein complex was observed ([1]; NFAT1/DNA, FIG. 7 lane 12, UV 365 nm) [µM]","UV illumination time at which crosslinked complex was visible ([1]; NFAT1/DNA, probe 100 μM) [s]","UV illumination time at which crosslinking reached plateau ([1]; NFAT1/DNA, probe 100 μM, plateau around 100 seconds and 5 min time points)",Structure (SMILES),formation of covalent NFAT1/DNA crosslinked complex stable under denaturing SDS-PAGE [1],crosslinking of the Nkx2.5/DNA complex [2],crosslinking of the p53/DNA complex [3]
–,–,–,C#CCCC1(CCNC(=O)CCOCCOCCOCCC(=O)NCCNC(=O)CCCOc2c3occc3cc3ccc(=O)oc23)N=N1 [SPB-PEG3-AAD],highly efficient crosslinking,–,–
–,–,–,"C#CCCC1(CCNC(=O)CCOCCOCCOCCOCCNC(=O)CCCOc2c3occc3cc3ccc(=O)oc23)N=N1 [SPB-PEG4-AAD, N-(2-(3-(but-3-yn-1-yl)-3H-diazirin-3-yl)ethyl)-1-(4-((7-oxo-7H-furo[3,2-g]chromen-9-yl)oxy)butanamido)-3,6,9,12-tetraoxapentadecan-15-amide]",dosage dependent crosslinking of NFAT1/DNA complexes,significant crosslinking of the Nkx2.5/DNA complex,significant crosslinking of the p53/DNA complex
0.125,3,around 100 seconds,"C#CCCC1(CCNC(=O)CCCOc2c3occc3cc3ccc(=O)oc23)N=N1 [SPB-AAD, N-(2-(3-(but-3-yn-1-yl)-3H-diazirin-3-yl)ethyl)-4-((7-oxo-7H-furo[3,2-g]chromen-9-yl)oxy)butanamide]",dosage dependent crosslinking of NFAT1/DNA complexes; also recorded: formation of complexes that run as larger molecular species than both free protein and DNA; also recorded: NFAT was crosslinked to c1 DNA (lane 2) and c2 DNA (lane 4) in the presence of UV,significant crosslinking of the Nkx2.5/DNA complex,significant crosslinking of the p53/DNA complex

# From patent US20250388597A1, “BIFUNCTIONAL PHOTOCROSSLINKING PROBES FOR COVALENT CAPTURE OF PROTEIN-NUCLEIC ACID COMPLEXES IN CELLS” (UNIVERSITY OF SOUTHERN CALIFORNIA, priority 2022, published 2025)
